Measured values taken from the supplement of paper PMC11061612.

How the values were obtained:
Experiment in all cases: combination Emax (second highest fraction inhibited in the dose matrix, 72 h); higher = more inhibition; extreme values may be limits of the assay
[1] = test system: ST486 (Burkitt's Lymphoma)
How it was run: (§1)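 Cell lines grown in DMEM/F12 or RPMI with 10% FBS were plated in 1536-well plates and held 24 hours at 37°C, 5% CO2 before 72 hours of exposure to two-drug dose matrices, with DMSO typically at 0.2%. CellTiter-Glo 2.0 luminescence gave viability, which was converted to inhibition. Vehicle wells were set to 0 and blank wells to 1. Combination Emax is the second-highest inhibition in the matrix, and Bliss excess is the observed combination effect minus the expected EA + EB − EA·EB, where EA and EB are the single-agent effects.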

[2] = test system: MOLM-13 (Acute Myeloid Leukemia)
How it was run: as §1

[3] = test system: HCC1419 (Breast Carcinoma)
How it was run: as §1

[4] = test system: KU812 (Chronic Myelogenous Leukemia)
How it was run: as §1

[5] = test system: CHSA8926 (Chondrosarcoma)
How it was run: as §1

[6] = test system: PC-3 (Prostate Carcinoma)
How it was run: as §1

[7] = test system: NCCIT (Other Solid Carcinomas)
How it was run: as §1

[8] = test system: KP-3 (Pancreatic Carcinoma)
How it was run: as §1

[9] = test system: MOG-G-CCM (Low Grade Glioma)
How it was run: as §1

[10] = test system: IM-95 (Gastric Carcinoma)
How it was run: as §1

[11] = test system: NCI-H929 (Plasma Cell Myeloma)
How it was run: as §1

[12] = test system: KMS-12-BM (Plasma Cell Myeloma)
How it was run: as §1

[13] = test system: NCI-H520 (Squamous Cell Lung Carcinoma)
How it was run: as §1

[14] = test system: H9 (T-Cell Non-Hodgkin's Lymphoma)
How it was run: as §1

[15] = test system: NCI-H526 (Small Cell Lung Carcinoma)
How it was run: as §1

[16] = test system: KY821 (Acute Myeloid Leukemia)
How it was run: as §1

[17] = test system: 8505C (Thyroid Gland Carcinoma)
How it was run: as §1

[18] = test system: JHH-4 (Hepatocellular Carcinoma)
How it was run: as §1

[19] = test system: SJSA-1 (Osteosarcoma)
How it was run: as §1

[20] = test system: G-361 (Melanoma)
How it was run: as §1

| SMILES | combination Emax [1] | combination Emax [2] | combination Emax [3] | combination Emax [4] | combination Emax [5] | combination Emax [6] | combination Emax [7] | combination Emax [8] | combination Emax [9] | combination Emax [10] | combination Emax [11] | combination Emax [12] | combination Emax [13] | combination Emax [14] | combination Emax [15] | combination Emax [16] | combination Emax [17] | combination Emax [18] | combination Emax [19] | combination Emax [20] |
| --- | --- | --- | --- | --- | --- | --- | --- | --- | --- | --- | --- | --- | --- | --- | --- | --- | --- | --- | --- | --- |
| CN(C)CCCOc1ccc(-c2ccc3ncc4c(c3c2)n(C2CCOCC2)c(=O)n4C)cn1 [AZD0156] + C=CCn1c(=O)c2cnc(Nc3ccc(N4CCN(C)CC4)cc3)nc2n1-c1cccc(C(C)(C)O)n1 [AZD1775] (first compound max 1 µM, partner max 1 µM) | 0.987 | 0.985 | 0.104 | 0.789 | 0.49 | 0.224 | 0.858 | 0.211 | 0.4 | 0.454 | 0.675 | 0.948 | 0.789 | 0.891 | 0.65 | 0.987 | 0.126 | 0.428 | 0.17 | 0.564 |
| CN(C)CCCOc1ccc(-c2ccc3ncc4c(c3c2)n(C2CCOCC2)c(=O)n4C)cn1 [AZD0156] + CCN(CCO)CCCOc1ccc2c(Nc3cc(CC(=O)Nc4cccc(F)c4)[nH]n3)ncnc2c1 [AZD2811] (first compound max 1 µM, 7x7, partner max 1 µM) | 0.913 | 0.983 | 0.118 | 0.584 | 0.214 | 0.16 | 0.17 | 0.0612 | 0.367 | 0.438 | 0.815 | 0.495 | 0.458 | 0.727 | 0.373 | 0.559 | 0.102 | 0.095 | 0.123 | 0.256 |
| CN(C)CCCOc1ccc(-c2ccc3ncc4c(c3c2)n(C2CCOCC2)c(=O)n4C)cn1 [AZD0156] + C[C@@H]1COCCN1C2=NC(=NC(=C2)C3(CC3)[S@](=N)(=O)C)C4=C5C=CNC5=NC=C4 [AZD6738] (first compound max 1 µM, 7x7, partner max 10 µM) | 0.948 | 0.997 | 0.159 | 0.735 | 0.336 | 0.484 | 0.656 | 0.398 | 0.413 | 0.339 | 0.778 | 1 | 0.682 | 0.972 | 0.529 | 0.966 | 0.24 | 0.133 | 0.325 | 0.628 |
| CN(C)CCCOc1ccc(-c2ccc3ncc4c(c3c2)n(C2CCOCC2)c(=O)n4C)cn1 [AZD0156] + O=C(c1cc(Cc2n[nH]c(=O)c3ccccc23)ccc1F)N1CCN(C(=O)C2CC2)CC1 [Olaparib] (first compound max 3 µM, partner max 3 µM) | 0.621 | 0.563 | 0.187 | 0.64 | 0.467 | 0.199 | 0.194 | 0.0919 | 0.289 | 0.151 | 0.863 | 0.438 | 0.473 | 0.445 | 0.408 | 0.4 | 0.392 | 0.22 | 0.331 | 0.267 |
| C=CCn1c(=O)c2cnc(Nc3ccc(N4CCN(C)CC4)cc3)nc2n1-c1cccc(C(C)(C)O)n1 [AZD1775] + C1CN(CCC1(C(=O)N[C@@H](CCO)C2=CC=C(C=C2)Cl)N)C3=NC=NC4=C3C=CN4 [Capivasertib] (first compound max 3 µM, partner max 3 µM) | 0.971 | 1 | 0.282 | 0.912 | 0.578 | 0.394 | 0.963 | 0.28 | 0.748 | 0.655 | 0.981 | 0.984 | 0.795 | 0.95 | 0.907 | 0.994 | 0.741 | 0.439 | 0.634 | 0.724 |
| C=CCn1c(=O)c2cnc(Nc3ccc(N4CCN(C)CC4)cc3)nc2n1-c1cccc(C(C)(C)O)n1 [AZD1775] + C[C@@H]1COCCN1C2=NC(=NC(=C2)C3(CC3)[S@](=N)(=O)C)C4=C5C=CNC5=NC=C4 [AZD6738] (first compound max 1 µM, partner max 10 µM) | 0.979 | 0.999 | 0.221 | 0.849 | 0.461 | 0.498 | 0.905 | – | 0.682 | 0.761 | 0.713 | 1 | 0.86 | 1 | 0.873 | 1 | – | 0.498 | 0.393 | 0.676 |
| C=CCn1c(=O)c2cnc(Nc3ccc(N4CCN(C)CC4)cc3)nc2n1-c1cccc(C(C)(C)O)n1 [AZD1775] + O=C(c1cc(Cc2n[nH]c(=O)c3ccccc23)ccc1F)N1CCN(C(=O)C2CC2)CC1 [Olaparib] (first compound max 1 µM, partner max 10 µM) | 0.979 | 0.991 | 0.118 | 0.816 | 0.455 | 0.207 | 0.759 | 0.28 | 0.456 | 0.447 | 0.473 | 0.905 | 0.833 | 0.868 | 0.758 | 1 | 0.319 | 0.307 | 0.253 | 0.564 |
| CCN(CCO)CCCOc1ccc2c(Nc3cc(CC(=O)Nc4cccc(F)c4)[nH]n3)ncnc2c1 [AZD2811] + C=CCn1c(=O)c2cnc(Nc3ccc(N4CCN(C)CC4)cc3)nc2n1-c1cccc(C(C)(C)O)n1 [AZD1775] (first compound max 1 µM, partner max 1 µM) | 0.983 | 1 | 0.0861 | 0.725 | 0.455 | 0.237 | 0.781 | 0.209 | 0.377 | 0.475 | 0.323 | 0.944 | 0.674 | 0.985 | 0.566 | 1 | 0.188 | 0.355 | 0.289 | 0.477 |
| COc1nnc2ccc(N3CCC(c4ccc(OCCN5CCN(C)C(=O)[C@H]5C)cc4)CC3)nn12 [AZD5153] + CN(CC[C@H](CSC1=CC=CC=C1)NC2=C(C=C(C=C2)S(=O)(=O)NC(=O)C3=CC=C(C=C3)N4CCC(CC4)[C@H](C5=CC=CC=C5C6=CC=C(C=C6)Cl)O)S(=O)(=O)C(F)(F)F)CCO [AZD4320] (first compound max 1 µM, 7x7, partner max 1 µM) | – | 1 | 0.277 | – | 0.695 | 0.347 | – | – | – | 0.548 | – | 1 | – | 1 | – | 1 | 0.441 | 0.36 | – | 0.67 |
| Cc1c2c(nn1C)CSCc1cc(n(C)n1)CSc1cc(c3ccccc3c1)OCCCc1c(C(=O)O)n(C)c3c-2c(Cl)ccc13 [AZD5991] + CN(C)CCCOc1ccc(-c2ccc3ncc4c(c3c2)n(C2CCOCC2)c(=O)n4C)cn1 [AZD0156] (first compound max 1 µM, 7x7, partner max 1 µM) | 0.805 | 1 | 0.385 | 0.828 | 0.497 | 0.282 | 0.641 | – | 0.249 | 0.824 | 1 | 1 | 0.509 | 0.834 | 0.378 | 1 | 0.609 | 0.331 | 0.322 | 0.956 |
| Cc1c2c(nn1C)CSCc1cc(n(C)n1)CSc1cc(c3ccccc3c1)OCCCc1c(C(=O)O)n(C)c3c-2c(Cl)ccc13 [AZD5991] + Cn1cnc2c(F)c(Nc3ccc(Br)cc3Cl)c(C(=O)NOCCO)cc21 [Selumetinib] (first compound max 1 µM, 7x7, partner max 3 µM) | 0.993 | 1 | 0.284 | 0.949 | 0.303 | 0.245 | 0.579 | – | 0.195 | 0.957 | 1 | 1 | 0.176 | 1 | – | 1 | 0.42 | 0.492 | 0.457 | 0.992 |
| C[C@@H]1COCCN1c1cc(C2([S@](C)(=N)=O)CC2)nc(-c2ccnc3[nH]ccc23)n1 [AZD6738] + O=C(c1cc(Cc2n[nH]c(=O)c3ccccc23)ccc1F)N1CCN(C(=O)C2CC2)CC1 [Olaparib] (first compound max 10 µM, 7x7, partner max 10 µM) | 0.909 | 1 | 0.191 | 0.806 | 0.36 | 0.514 | 0.609 | – | 0.42 | 0.459 | 0.668 | 0.945 | 0.752 | 0.911 | 0.752 | 0.97 | 0.356 | 0.251 | 0.377 | 0.456 |
| CC(=O)Nc1cccc(-n2c(=O)n(C3CC3)c(=O)c3c(Nc4ccc(I)cc4F)n(C)c(=O)c(C)c32)c1 [Trametinib] + Cc1nc(-c2cn3c(n2)-c2ccc(-c4cnn(C(C)(C)C(N)=O)c4)cc2OCC3)n(C(C)C)n1 [Taselisib] (first compound max 1 µM, 7x7, partner max 10 µM) | 0.775 | 1 | 0.649 | 0.921 | – | 0.503 | 0.73 | 0.446 | 0.548 | 0.584 | 1 | 0.636 | 0.65 | 0.984 | 0.304 | 0.97 | 0.496 | 0.997 | 0.699 | 0.996 |
